# Experimental data as given in patent US20230414774A1, “ANTI-CLDN18.2 ANTIBODY, DRUG CONJUGATE, AND PREPARATION METHOD THEREFOR AND USE THEREOF” (CSPC MEGALITH BIOPHARMACEUTICAL CO., LTD., priority 2020, published 2023).
# B1: SYJS001 monoclonal antibody (antibody, human IgG1, kappa, V domains shown)
# VH: EVQLSESGGALVQPGESLRLSCAASGFTFSSYAMTWVRQAPGKGLEWVSSLSGSGRSTYYAASIKGRFTISRDNSKNTLYLQMSSLRAEDTAIYYCAKSLSYYHYYFDYWGQGTLVTVSS
# VL: DIQLTQSPSFLSASVGDRVPITCRASQDISNYLAWYQQKPGKAPKLLIYSASTLQSGVPSRFSGSGSGTEFTLTISSLQPEDFASYHCQQVKTYPLTFGGGTKVEIKR
# Columns and labels:
# [1] = test system: human pancreatic cancer Bxpc3-18.2 xenografts; assay: In vivo efficacy, xenograft, gemcitabine as reference; design: species or system nude mice; conditions: i.v., 50 mg/kg biw×4, day 28
# Description: 1) In this experiment, nude mice with human pancreatic cancer Bxpc3-18.2 xenografts were used. When the tumor volume reached about 100 mm^3 (day 39 after inoculation), 48 animals with bulky xenografts were selected and divided into six groups (on day 0) with tumor volume balancing among groups. Eight animals in individual groups were intravenously administered 0.9% sodium chloride injection (0.9% INJ NS, vehicle control group), SYJS001-ADC at 2, 4 and 8 mg/kg (single dose), SYJS001-mAb (SYJS001 nude antibody) at 8 mg/kg (single dose) and Gemcitabine (GEM) at 50 mg/kg (biw×4, twice a week for 4 weeks), respectively. Tumor diameters were measured twice a week. Mice were weighed, and data were recorded. Tumor growth was dynamically observed by measuring tumor diameters at different times after dosing. At the end of the experiment on day 28, the mice were asphyxiated with carbon dioxide, and the tumors were peeled and weighed.
# [2] = test system: human gastric cancer NUGC-4-18.2 xenografts; assay: In vivo efficacy, xenograft, cisplatin as reference; design: species or system nude mice; conditions: i.v., 6 mg/kg qw×3, day 20
# Description: 2) In this experiment, nude mice with human gastric cancer NUGC-4-18.2 xenografts were used. When the tumor volume reached about 120 mm^3 (day 6 after inoculation), 64 animals with bulky xenografts were selected and divided into eight groups (on day 0) with tumor volume balancing among groups. Eight animals in individual groups were intravenously administered 0.9% sodium chloride injection (0.9% INJ NS, vehicle control group), SYJS001-ADC at 1, 2 and 4 mg/kg (qw×3), SYJS001-ADC at 4 and 8 mg/kg (single dose), SYJS001-mAb at 4 mg/kg (qw×3) and Cisplatin at 6 mg/kg (qw×3, once a week for 3 weeks), respectively. Tumor diameters were measured twice a week. Mice were weighed, and data were recorded. Tumor growth was dynamically observed by measuring tumor diameters at different times after dosing. At the end of the experiment on day 20, the mice were asphyxiated with carbon dioxide, and the tumors were peeled and weighed.
# [3] = biological target: human CLDN18.2 on cells (human) (UniProt P56856); assay: flow cytometry on BxPC3-CLDN18.2 cells, ED50 comparison
molecule,measurement,setting,value
Nc1ccn([C@@H]2O[C@H](CO)[C@@H](O)C2(F)F)c(=O)n1 [Gemcitabine],tumor weight suppression rate,[1],51.0%
N.N.[Cl][Pt][Cl] [Cisplatin],tumor weight suppression rate,[2],66.5%
B1,fold affinity against IMAB362,[3],2 fold
